Values after ≈ are worked out from the molar mass of the structure shown. “Also recorded” adds a separate entry of the source.
Tests used:
[1] = test system: H. pylori vacA gene expression; assay: RT-PCR study on VacA toxin expression; format: cell-based, Helicobacter pylori; details: sub-MIC level of 200 ng/mL, 3 days
[2] = test system: AGS cells co-cultured with H. pylori (strain 60190); assay: Light microscopy imaging for vacuolation; format: cell-based; details: sub-MIC (0.2 μg/mL), 24 h, MOI of 100
Protocol: H. Pylon bacteria secrete VacA toxin via a type V secretion system (Galmiche et al. Gut Microbes. 2010 November-December; 1(6):392-5. 44). This toxin binds to host gastric epithelial cells and its internalization leads to vacuolation, characterized by the accumulation of large vacuoles in gastric epithelial cells during the infection process. AGS cells were harvested and seeded into a 6 well plate at a concentration of 5×10^5 cells, 24 h before experimentation. H. Pylon bacteria (strain 60190) were harvested and washed with sterile PBS and co-cultured with AGS at a MOI of 100. After incubation for 24 h, the cells were washed, magnified under a microscope, and examined for vacuolation. […] After 3 days, the bacteria were washed and treated with TRIZOL (Invitrogen, Carlsbad, Calif., USA), and the RNA concentration was determined using a NanoVue Plus spectrophotometer (GE Healthcare, Fairfield, Conn., USA). PCR amplifications were performed, and the products were analysed by gel electrophoresis (1.0% agarose) containing SYBR® Safe (Invitrogen). Gel images were captured and analysed using the Quantity One System.

H. pylori infection = assay: Galleria mellonella in vivo infection model; details: 25 mg/kg, injected 2 hours after H. pylori inoculation
Protocol: Assays were performed as described by Giannouli et al. (BMC Microbiol. 2014 Aug. 27; 14:228), an alternative model host for the evaluation of antimicrobial agents against H. pylori infection. Twelve randomly selected G. mellonella larvae (Vanderhorst, Inc., St. Mary's, OH, USA) between 300-350 mg were used for each group in the experiment. H. pylori cells were washed with PBS and diluted to OD600 nm=0.3, before inoculation into G. mellonella larvae. A 10 μL inoculum was injected into the last left proleg using a 10 μL Hamilton syringe. After 2 hours, compounds were administered at into the last right proleg and the wax moths were incubate at 37° C. Niclosamide was administered at a concentration of 25 mg/kg. Clarithromycin administered at a concentration of 10 mg/kg was used as a comparator. Three control groups were included (1) injected with PBS only; (2) inoculated with H. pylori but treated with sham injections; and (3) no manipulation. G. mellonella survival was evaluated up to 120 hours. The surviving larvae were monitored every 24 hours and were considered dead if they were unresponsive to external stimuli (touch). Killing curves and differences in survival were analysed by the Kaplan-Meier method using GraphPad Prism version 6.04 (GraphPad Software, La Jolla, Calif., USA). Statistical analysis (Kruskal-Wallis test) was carried out using the same program.

H. pylori bacteria = assay: Scanning electron microscopy of morphology; format: cell-based, Helicobacter pylori; details: 2 hours
H. Pylori 51932 = assay: Broth microdilution assay, MIC; format: cell-based; details: Helicobacter pylori; strain H. Pylori 51932

O=C(Nc1ccc([N+](=O)[O-])cc1Cl)c1cc(Cl)ccc1O [Niclosamide, niclosamide]
effect on VacA expression compared to housekeeping gene rpoB [1]: down-regulated vacA gene; also recorded: downregulates VacA expression | effect on vacuolation of AGS cells [2]: prevented vacuolation | survival of wax-moth larvae up to 120 hours (H. pylori infection): About 60% | morphology (helical shape) by SEM (H. pylori bacteria; 1× MIC): shortened | morphology by SEM (H. pylori bacteria; 4× and 8× MIC): Cocco-bacillary | effect on bacterial flagella by SEM (H. pylori bacteria; niclosamide treatment): flagellar deformation | MIC (H. Pylori 51932): 0.5 µg/mL (≈ 1.53 µM)
